Measured values as given in the NIST ThermoML archive (doi:10.1021/acs.jced.6b00261).

Conditions: Liquid, Frequency=8 MHz, Pulse-echo method

C[Si]1(C)O[Si](C)(C)O[Si](C)(C)O[Si](C)(C)O1 [octamethylcyclotetrasiloxane]
Conditions | speed of sound [m/s]
299.67 K, 14920 kPa | 1006.8
299.79 K, 130 kPa | 911.09
299.8 K, 520 kPa | 913.77
299.81 K, 980 kPa | 916.96
299.81 K, 1500 kPa | 920.51
299.82 K, 1980 kPa | 923.9
299.83 K, 3440 kPa | 933.79
299.85 K, 6010 kPa | 950.89
300.15 K, 10240 kPa | 978.63
349.96 K, 26230 kPa | 939.02
349.98 K, 14970 kPa | 866.97
350 K, 10200 kPa | 832.31
350.03 K, 6210 kPa | 800.86
350.04 K, 1960 kPa | 764.8
350.04 K, 3530 kPa | 778.49
350.05 K, 960 kPa | 755.62
350.05 K, 1480 kPa | 760.43
350.06 K, 530 kPa | 751.64
350.07 K, 120 kPa | 747.75
350.35 K, 22660 kPa | 915.86
399.62 K, 19680 kPa | 784.97
399.63 K, 15100 kPa | 749.46
399.64 K, 6070 kPa | 667.98
399.64 K, 10120 kPa | 706.83
399.68 K, 3610 kPa | 641.86
399.69 K, 19290 kPa | 782.02
399.7 K, 510 kPa | 605.91
399.7 K, 1030 kPa | 612.25
399.7 K, 1460 kPa | 617.43
399.7 K, 2040 kPa | 624.18
399.71 K, 120 kPa | 600.99
449.63 K, 960 kPa | 475.36
449.64 K, 130 kPa | 461.18
449.64 K, 500 kPa | 467.67
449.69 K, 1960 kPa | 491.86
449.7 K, 1490 kPa | 484.22
449.77 K, 3600 kPa | 516.36
449.87 K, 5900 kPa | 547.45
450 K, 10040 kPa | 596.17
450.19 K, 15080 kPa | 646.97
450.23 K, 16420 kPa | 659.13
499.88 K, 3480 kPa | 398.42
499.88 K, 6030 kPa | 444.06
499.91 K, 2030 kPa | 367.4
499.92 K, 330 kPa | 321.35
499.92 K, 1490 kPa | 354.75
499.93 K, 11150 kPa | 515.95
499.94 K, 520 kPa | 329.04
500 K, 10650 kPa | 509.56
549.54 K, 5510 kPa | 338.9
549.55 K, 5070 kPa | 329.01
549.56 K, 4550 kPa | 317.1
549.61 K, 3880 kPa | 300.55
549.97 K, 6640 kPa | 364.29
